Results published in patent publication US6962933B1, “Method for inhibiting p38 MAP kinase or TNF-α production using a 1,3-thiazole” (Takeda Pharmaceutical Company Limited, priority 1999, dated 2005).

Key:
TNF-α production = assay: Inhibiting activity of TNF-α production in LPS-stimulated THP-1 cells (ELISA); format: cell-based; settings: Homo sapiens, LPS 5 μg/mL, 4 hours, TNF-α in supernatant by ELISA, read-out: IC50 (concentration necessary for inhibiting TNF-α production by 50%)
Procedure: Measurement of inhibiting activity of TNF-α production
After THP-1 cells which had been cultured on PRMI 1640 medium (manufactured by Life Technologies, Inc.) containing 1% inactivated bovine fetal serum (manufactured by Life Technologies, Inc., U.S.A.) and 10 mM HEPES (pH 7.5) seeded on a 96-well plate to 1×10^5 cells/well, 1 μL test compound dissolved in DMSO was added. After incubation at 37° C. for 1 hour in a CO2 incubator, LPS (Wako Pure Chemicals) was added to the final concentration 5 μg/mL. After cultured at 37° C. for 4 hours in a CO2 incubator, the supernatant was obtained by centrifugation. The concentration of TNF-α in the supernatant was measured by ELISA (R&D Systems, Quantikine Kit). The concentration (IC50 value) of the test compound necessary for inhibiting TNF-α production by 50% was calculated using PRIMS 2.01 (Graphpad Software).

| Structure (SMILES) | melting point | IC50 (TNF-α production) |
| --- | --- | --- |
| CNc1nc(-c2ccc(OC)cc2)c(-c2ccncc2)s1 [Reference Example 13-16, N-methyl [4-(4-methoxyphenyl)-5-(4-pyridyl)-1,3-thiazol-2-yl]amine] | 177 to 178 °C | 140 nM |
| CNc1nc(-c2ccc(Cl)cc2)c(-c2ccncc2)s1 [Reference Example 13-70, N-methyl [4-(4-chlorophenyl)-5-(4-pyridyl)-1,3-thiazol-2-yl]amine] | 224 to 225 °C | 180 nM |
| Cc1cccc(-c2nc(N)sc2-c2ccncc2)c1 [Reference Example 23-60, [4-(3-methylphenyl)-5-(4-pyridyl)-1,3-thiazol-2-yl]amine] | 255 to 258 °C | 46 nM |
| Fc1ccc(-c2nc(-c3ccccc3)sc2-c2ccncc2)cc1 [Reference Example 44-1, 4-(4-fluorophenyl)-2-phenyl-5-(4-pyridyl)-1,3-thiazole] | 135 to 137 °C | – |
| CSc1ccc(-c2nc(-c3cccc(C)c3)c(-c3ccncc3)s2)cc1 [Reference Example 44-7, methyl 4-[4-(3-methylphenyl)-5-(4-pyridyl)-1,3-thiazol-2-yl]phenylsulfide] | 101 to 102 °C | – |
| Cc1cccc(-c2nc(-c3ccc([S+](C)[O-])cc3)sc2-c2ccncc2)c1 (stereo not drawn) [Reference Example 44-8, methyl 4-[4-(3-methylphenyl)-5-(4-pyridyl)-1,3-thiazol-2-yl]phenylsulfoxide] | 188 to 189 °C | – |
